Patent US4217268A, “Synthesis of peptides” (priority 1978, dated 1980)
Bridge positions count the residues as written; N and C are the ends. Peptide text beside a SMILES is read from it.

Assay: Calcitonin potency assay of the purified product (MRC units per mg)
Settings: purified freeze-dried product of Example 1

CC(C)C[C@H](NC(=O)[C@H](CCCCN)NC(=O)CNC(=O)[C@H](CC(C)C)NC(=O)[C@@H](NC(=O)[C@@H]1CSSC[C@H](N)C(=O)N[C@@H](CC(N)=O)C(=O)N[C@@H](CC(C)C)C(=O)N[C@@H](CO)C(=O)N[C@@H]([C@@H](C)O)C(=O)N1)C(C)C)C(=O)N[C@@H](CO)C(=O)N[C@@H](CCC(N)=O)C(=O)N[C@@H](CCC(=O)O)C(=O)N[C@@H](CC(C)C)C(=O)N[C@@H](Cc1c[nH]cn1)C(=O)N[C@@H](CCCCN)C(=O)N[C@@H](CC(C)C)C(=O)N[C@@H](CCC(N)=O)C(=O)N[C@H](C(=O)N[C@@H](Cc1ccc(O)cc1)C(=O)N1CCC[C@H]1C(=O)N[C@@H](CCCNC(=N)N)C(=O)N[C@H](C(=O)N[C@@H](CC(N)=O)C(=O)N[C@H](C(=O)NCC(=O)N[C@@H](CO)C(=O)NCC(=O)N[C@H](C(=O)N1CCC[C@H]1C(N)=O)[C@@H](C)O)[C@@H](C)O)[C@@H](C)O)[C@@H](C)O [des-Ser^2-SCT, des-ser^2 -salmon calcitonin] (H-CNLSTCVLGKLSQELHKLQTYPRTNTGSGTP-NH2; disulfide 1-6)
biological potency (assayed MRC units per mg): 5600 MRC units per mg
